From ChEMBL document CHEMBL2073942, “Localization of organic anion transport protein 2 in the apical region of rat retinal pigment epithelium” (Invest Ophthalmol Vis Sci, 2002) come the findings set out here.

SMILES strings stand for the structures. pKi: −log10 of the molar value.

The target in this assay is T1, Solute carrier organic anion transporter family member 1A4 (Rattus norvegicus, UniProt O35913).
T1 sequence (O35913 whole entry): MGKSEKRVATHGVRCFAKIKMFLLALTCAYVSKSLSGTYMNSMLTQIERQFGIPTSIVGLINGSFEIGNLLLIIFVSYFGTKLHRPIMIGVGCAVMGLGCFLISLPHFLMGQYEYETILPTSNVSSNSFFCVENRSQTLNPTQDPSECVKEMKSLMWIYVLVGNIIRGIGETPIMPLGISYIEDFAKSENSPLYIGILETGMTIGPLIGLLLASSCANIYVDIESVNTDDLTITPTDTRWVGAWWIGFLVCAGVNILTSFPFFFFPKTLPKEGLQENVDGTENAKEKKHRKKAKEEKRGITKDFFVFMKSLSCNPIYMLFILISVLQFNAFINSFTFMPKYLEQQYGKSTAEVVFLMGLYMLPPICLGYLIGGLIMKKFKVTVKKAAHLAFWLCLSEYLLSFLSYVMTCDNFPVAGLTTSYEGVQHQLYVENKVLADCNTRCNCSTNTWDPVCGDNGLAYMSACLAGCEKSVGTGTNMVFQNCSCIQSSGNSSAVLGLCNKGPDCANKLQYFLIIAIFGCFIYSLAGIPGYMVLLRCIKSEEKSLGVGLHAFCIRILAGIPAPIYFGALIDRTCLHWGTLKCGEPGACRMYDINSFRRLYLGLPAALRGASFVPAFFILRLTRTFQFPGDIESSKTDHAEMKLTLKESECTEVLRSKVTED
Put plainly: TP_TRANSPORTER: inhibition of Digoxin uptake in Xenopus laevis oocytes. Type of assay: functional, cell-based, Oocyte.

For the molecule `CC1=C(/C=C/C(C)=C/C=C/C(C)=C/c2cc(/C=C/C=C(C)/C=C/C3=C(C)CCCC3(C)C)cc[n+]2CCO)C(C)(C)CCC1`, the pKi (as a rule, the Ki on a negative log10 scale, so that one unit is a factor of ten) is 4.43.
